Source: ChEMBL document CHEMBL4699565, “Computational modeling and target synthesis of monomethoxy-substituted o-diphenylisoxazoles with unexpectedly high antimitotic microtubule destabilizing activity” (Bioorg Med Chem Lett, 2020)

Tests used:
Paracentrotus lividus [1] = assay: Antimitotic activity against sea urchin embryo assessed as cleavage alteration measured 2.5 to 6 hrs post-fertilization by light microscopy analysis; format: functional
MDA-MB-435 = assay: Cytotoxicity against human MDA MB 435 cells; format: functional
K562 = assay: Cytotoxicity against human K562 cells; format: functional, cell-based
Paracentrotus lividus [2] = assay: Antimitotic activity against sea urchin embryo assessed as embryo spinning measured 2.5 to 6 hrs post-fertilization observed after 15 min to 20 hrs of treatment by light microscopy analysis; format: functional; settings: time hrs 0.25-20
Tubulin (Homo sapiens) = Tubulin (Homo sapiens) (UniProt P68371+Q9H4B7+P0DPH7+P68366+Q13509+Q71U36+P04350+Q3ZCM7+P07437+P68363+Q9BQE3+Q6PEY2+Q13885+Q9BVA1+Q9BUF5); assay: Binding affinity to tubulin (unknown origin) assessed as change in gibbs free energy; format: protein-complex assay
[3] = tested on: Panel NCI-60 (60 carcinoma cell lines); assay: Cytotoxicity against human NCI60 cells; format: functional
Paracentrotus lividus [4] = assay: Antimitotic activity against sea urchin embryo assessed as cleavage arrest measured 2.5 to 6 hrs post-fertilization by light microscopy analysis; format: functional; settings: time hrs 2.5-6
Paracentrotus lividus [5] = assay: Antimitotic activity against sea urchin embryo assessed as cleavage arrest by phase microscopy analysis; format: functional

`COc1ccc(-c2conc2-c2ccccc2)cc1` was tested, and the EC (Paracentrotus lividus [1]) was 0.005 µM, the GI50 (MDA-MB-435) was 26 nM and the IC50 (K562) was 47 nM. The EC (Paracentrotus lividus [2]) was 0.1 µM, the deltaG (Tubulin (Homo sapiens)) was -11.3 kcal/mol and the GI50 [3] was 457 nM. The EC (Paracentrotus lividus [4]) was 0.05 µM.
Work on `COc1ccc(-c2nocc2-c2cc(OC)c(OC)c(OC)c2)cc1` yielded a deltaG (Tubulin (Homo sapiens)) of -10.9 kcal/mol.
For `COc1cc(-c2cc(-c3cccc(O)c3)cnc2N)cc(OC)c1OC`, the EC (Paracentrotus lividus [1]) was 0.1 µM, the EC (Paracentrotus lividus [2]) was 1 µM and the EC (Paracentrotus lividus [4]) was 1 µM.
With `COc1ccc(-c2oncc2-c2ccccc2)cc1` the EC (Paracentrotus lividus [1]) was 0.2 µM, the EC (Paracentrotus lividus [2]) was greater than 5 µM and the deltaG (Tubulin (Homo sapiens)) was -9.15 kcal/mol. For the same compound, the EC (Paracentrotus lividus [4]) was 2 µM.
Work on `COc1ccc(-c2nocc2-c2ccccc2)cc1` yielded an EC (Paracentrotus lividus [1]) of 0.2 µM, an EC (Paracentrotus lividus [2]) of 2 µM and a deltaG (Tubulin (Homo sapiens)) of -9.15 kcal/mol. For the same compound, the EC (Paracentrotus lividus [4]) was 2 µM.
`COc1cc2c(c(OC)c1OC)-c1ccc(OC)c(=O)cc1[C@@H](NC(C)=O)CC2` [COLCHICINE] showed an EC (Paracentrotus lividus [1]) of 0.05 µM, an EC (Paracentrotus lividus [2]) of 0.05 µM and an EC (Paracentrotus lividus [4]) of 0.1 µM.
Compound `COc1cc([C@@H]2c3cc4c(cc3[C@H](O)[C@H]3COC(=O)[C@H]23)OCO4)cc(OC)c1OC` [PODOFILOX] has an EC (Paracentrotus lividus [1]) of 0.02 µM, an EC (Paracentrotus lividus [2]) of 0.5 µM and an EC (Paracentrotus lividus [4]) of 0.05 µM.
`COc1ccc(/C=C\c2cc(OC)c(OC)c(OC)c2)cc1O` [COMBRETASTATIN A4] was tested, and the EC (Paracentrotus lividus [1]) was 0.002 µM, the IC50 (K562) was 1 nM and the EC (Paracentrotus lividus [2]) was 0.05 µM. The deltaG (Tubulin (Homo sapiens)) was -11.9 kcal/mol and the EC (Paracentrotus lividus [4]) was 0.01 µM.
For `COc1ccc(-c2cnoc2-c2ccccc2)cc1`, the EC (Paracentrotus lividus [1]) was 0.002 µM, the EC (Paracentrotus lividus [2]) was 0.1 µM and the deltaG (Tubulin (Homo sapiens)) was -11.9 kcal/mol. For the same compound, the EC (Paracentrotus lividus [4]) was 0.02 µM.
For `COc1cc2c(c(OC)c1OC)-c1cc3c(cc1[C@H](OC(C)=O)[C@H]1COC(=O)[C@@H]1C2)OCO3` [(-)-STEGANACIN], the EC (Paracentrotus lividus [5]) was 0.3 µM.
